Biological target: T1, human liver recombinant fructose-1,6-bisphosphatase (hFBPase) (Homo sapiens, UniProt P09467)
T1 sequence (P09467 1-338): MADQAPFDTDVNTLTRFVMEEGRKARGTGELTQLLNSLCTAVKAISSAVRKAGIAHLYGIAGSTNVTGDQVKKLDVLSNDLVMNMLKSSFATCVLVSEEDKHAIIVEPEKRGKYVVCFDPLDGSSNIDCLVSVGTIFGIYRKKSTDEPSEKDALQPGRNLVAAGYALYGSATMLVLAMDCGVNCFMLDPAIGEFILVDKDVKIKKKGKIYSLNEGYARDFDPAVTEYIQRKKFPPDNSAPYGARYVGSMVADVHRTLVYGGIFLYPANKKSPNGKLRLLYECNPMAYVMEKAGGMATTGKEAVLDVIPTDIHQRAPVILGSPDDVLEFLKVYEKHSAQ
Assay: Inhibition of human liver recombinant fructose-1,6-bisphosphatase (spectrophotometric coupled PGI/G6PDH assay)
Assay type: biochemical
Conditions: human liver recombinant enzyme; 0.167 mM fructose-1,6-bisphosphate, pH 7.5, room temperature, 340 nm
Protocol: Method for Measuring the Inhibition of Human Liver Recombinant Fructose-1,6-bisphosphatase
The enzymatic activity is measured by using a spectrophotometric method by means of reactions coupling the formation of the product (fructose-6-phosphate) to the reduction of NADP+ via phosphoglucoisomerase (PGI) and glucose-6-phosphate dehydrogenase (G6PDH).
The reaction mixtures (250 μl) are prepared in 96-well plates and are composed of 20 mM triethanolamine, pH 7.5, 2 mM MgCl2, 0.1 mM EDTA, 40 mM ammonium sulfate, 0.5 mM NADP, 1 U/ml G6PDH, 1 U/ml PGI and 0.167 mM of substrate (fructose-1,6-bisphosphate).
The inhibitors are prepared at 10^−2 M in 100% DMSO and tested at 10^−5 M (DMSO 0.1% final).
The reactions are initiated by addition of human liver recombinant enzyme fructose-1,6-bisphosphatase (hFBPase) and monitored for 30 minutes at 340 nm, at room temperature, in a Tecan plate reader.

IC50 [µM]	Structure (SMILES)
23	CC(C)(C)c1ccc(C(=O)Nc2[nH]c(Cc3ccc(C(=O)O)o3)nc2C(N)=O)cc1 [Example 6.8, 5-[5-(4-tert-Butylbenzoylamino)-4-carbamoyl-1H-imidazol-2-ylmethyl]furan-2-carboxylic acid]
36	CC(C)(C)c1ccc(C(=O)Nc2[nH]c(Cc3ccc(C(=O)N4CCCC4)o3)nc2C(N)=O)cc1 [Example 8.5, 5-(4-tert-Butylbenzoylamino)-2-[5-(pyrrolidine-1-carbonyl)furan-2-yl-methyl]-1H-imidazole-4-carboxamide]
28	CCCc1ccc(C(=O)Nc2[nH]c(Cc3ccc(C(=O)O)o3)nc2C(N)=O)cc1 [Example 6, 5-[4-Carbamoyl-5-(4-propylbenzoylamino)-1H-imidazol-2-ylmethyl]furan-2-carboxylic acid]
42	CC(C)c1cccc(C(C)C)c1NC(=O)Nc1[nH]c(Cc2ccc(C(=O)O)o2)nc1C(N)=O [Example 7.9, 5-{4-Carbamoyl-5-[3-(2,6-diisopropylphenyl)ureido]-1H-imidazol-2-yl-methyl}furan-2-carboxylic acid]
24	CCCCCc1ccc(NC(=O)Nc2[nH]c(Cc3ccc(C(=O)O)o3)nc2C(N)=O)cc1 [Example 7.8, 5-{4-Carbamoyl-5-[3-(4-pentylphenyl)ureido]-1H-imidazol-2-ylmethyl}furan-2-carboxylic acid]
